Measured values taken from paper PMC11491487 (Nature Communications, 2024).
“And” between values parts separate entries of the source, which are not always exact repeats. Equal entries are not always repeated.

Columns and labels:
rRyR1 = rRyR1 (Oryctolagus cuniculus, UniProt P11716); test: time-lapse [Ca2+]ER fluorescence assay, HEK293 cells; assay type: cell-based, rabbit
chiRyR [1] = molecular target: T1, chiRyR (Oryctolagus cuniculus, UniProt P11716, C4657I/F4564Y/L4792S/R4563K); test: cell-based; design: species or system rabbit
Sf RyR = Sf RyR (Spodoptera frugiperda, UniProt A0A4P8L6R5); test: time-lapse [Ca2+]ER fluorescence assay, HEK293 cells; assay type: cell-based
chiRyR [2] = molecular target: T1, chiRyR; test: biochemical; assay type: biochemical, rabbit
chiRyR-I4657M/G4819E = chiRyR-I4657M/G4819E (Oryctolagus cuniculus, UniProt P11716, C4657M/F4564Y/G4819E/L4792S/R4563K); test: biochemical; assay type: biochemical, rabbit; conditions: for [3H]ryanodine binding (B/Bmax): 1 μM TET

SMILES: CNC(=O)c1cc(C#N)cc(C)c1NC(=O)c1cc(Cn2nnc(C(F)(F)F)n2)nn1-c1ncccc1Cl [TET, tetraniliprole]
- F/F0 (rRyR1; TET 0.01 uM): 0.9832 and 0.9899 and 0.9753
- F/F0 (rRyR1; TET 0.1 uM): 0.9793 and 0.9852 and 0.9641
- F/F0 (rRyR1; TET 0.3 uM): 0.9696 and 0.952 and 0.9539
- F/F0 (rRyR1; TET 1 uM): 0.9135 and 0.9295 and 0.9254
- F/F0 (rRyR1; TET 3 uM): 0.8107 and 0.8058 and 0.7756
- F/F0 (rRyR1; TET 10 uM): 0.34 and 0.3602 and 0.3556
- F/F0 (rRyR1; TET 30 uM): 0.3168 and 0.2562 and 0.2448
- F/F0 (rRyR1; TET 100 uM): 0.2045 and 0.2471 and 0.2529
- EC50 (rRyR1; diamide insecticides, n = 3, read-out: EC50): 7600 nM
- EC50 (chiRyR [1]): 46.1 nM
- F/F0 (chiRyR [1]; TET 1e-5 uM): 0.9259 and 0.9674 and 0.9677
- F/F0 (chiRyR [1]; TET 0.001 uM): 0.7877 and 0.806 and 0.7759
- F/F0 (chiRyR [1]; TET 0.01 uM): 0.2917 and 0.2699 and 0.2537
- F/F0 (chiRyR [1]; TET 0.1 uM): 0.2632 and 0.2374 and 0.2313
- F/F0 (chiRyR [1]; TET 0.5 uM): 0.2569 and 0.2462 and 0.2329
- F/F0 (chiRyR [1]; TET 1 uM): 0.2399 and 0.24 and 0.2303
- F/F0 (chiRyR [1]; TET 10 uM): 0.2639 and 0.2436 and 0.2393
- F/F0 (chiRyR [1]; TET 50 uM): 0.3123 and 0.2617 and 0.3022
- EC50 (Sf RyR): 175 nM
- F/F0 (Sf RyR; TET 1e-5 uM): 0.9606 and 0.9752 and 0.9813
- F/F0 (Sf RyR; TET 0.001 uM): 1.004 and 1.002 and 1.001
- F/F0 (Sf RyR; TET 0.01 uM): 0.3097 and 0.3094 and 0.2868
- F/F0 (Sf RyR; TET 0.1 uM): 0.2582 and 0.2663 and 0.2776
- F/F0 (Sf RyR; TET 0.5 uM): 0.268 and 0.2944 and 0.2596
- F/F0 (Sf RyR; TET 1 uM): 0.2734 and 0.2934 and 0.2867
- F/F0 (Sf RyR; TET 10 uM): 0.2774 and 0.2809 and 0.2932
- F/F0 (Sf RyR; TET 50 uM): 0.2939 and 0.2698 and 0.3129
- EC50 (chiRyR [2]): 11.1 ± 0.9 nM
- promotion of [3H]ryanodine binding (chiRyR [2]; 1 μM TET): promote
- [3H]ryanodine binding (B/Bmax) (chiRyR [2]; 1 μM TET, pCa 2.01): 0.5896 and 0.5427 and 0.6286 and 0.5623
- [3H]ryanodine binding (B/Bmax) (chiRyR [2]; 1 μM TET, pCa 2.54): 0.4881 and 0.5388 and 0.5232 and 0.4217
- [3H]ryanodine binding (B/Bmax) (chiRyR [2]; 1 μM TET, pCa 3.01): 0.2889 and 0.3787 and 0.4022 and 0.2616
- [3H]ryanodine binding (B/Bmax) (chiRyR [2]; 1 μM TET, pCa 3.52): 0.2967 and 0.3397 and 0.4256 and 0.2811
- [3H]ryanodine binding (B/Bmax) (chiRyR [2]; 1 μM TET, pCa 3.89): 0.2811 and 0.328 and 0.3319 and 0.2616
- [3H]ryanodine binding (B/Bmax) (chiRyR [2]; 1 μM TET, pCa 4.5): 0.2889 and 0.2655 and 0.3319 and 0.285
- [3H]ryanodine binding (B/Bmax) (chiRyR [2]; 1 μM TET, pCa 5): 0.3163 and 0.2538 and 0.3046 and 0.2694
- [3H]ryanodine binding (B/Bmax) (chiRyR [2]; 1 μM TET, pCa 5.43): 0.3436 and 0.285 and 0.2889 and 0.367
- [3H]ryanodine binding (B/Bmax) (chiRyR [2]; 1 μM TET, pCa 6.01): 0.2772 and 0.2421 and 0.3319 and 0.3085
- [3H]ryanodine binding (B/Bmax) (chiRyR [2]; 1 μM TET, pCa 6.55): 0.3358 and 0.246 and 0.3826
- [3H]ryanodine binding (B/Bmax) (chiRyR [2]; 1 μM TET, pCa 6.98): 0.2616 and 0.2694 and 0.2382 and 0.2108
- EC50 (chiRyR-I4657M/G4819E): 87800 ± 6400 nM
- [3H]ryanodine binding (B/Bmax) (chiRyR-I4657M/G4819E; pCa 3.52): 0.1264 and 0.1119 and 0.1409 and 0.1015
- [3H]ryanodine binding (B/Bmax) (chiRyR-I4657M/G4819E; pCa 3.89): 0.1367 and 0.1222 and 0.1015
- [3H]ryanodine binding (B/Bmax) (chiRyR-I4657M/G4819E; pCa 4.5): 0.1326 and 0.1367 and 0.1347 and 0.1885
- [3H]ryanodine binding (B/Bmax) (chiRyR-I4657M/G4819E; pCa 5): 0.172 and 0.0953 and 0.1139 and 0.1243
- [3H]ryanodine binding (B/Bmax) (chiRyR-I4657M/G4819E; pCa 5.43): 0.04765 and 0.0663 and 0.05179 and 0.06008
